Values joined by “and” are separate entries in the source; they are usually repeats but may differ in a detail not shown here. Identical values can stand only once. “Also recorded” adds a separate entry of the source.
Columns and labels:
Polθ-pol = biological target: T1, Polθ-pol (Homo sapiens, UniProt O75417); assay: Primer extension by recombinant Pols (selectivity); format: biochemical
T1 construct: purified recombinant human Polθ-pol (comprising amino acid residues 1792–2590); made in house
T1 sequence (O75417 1792-2590): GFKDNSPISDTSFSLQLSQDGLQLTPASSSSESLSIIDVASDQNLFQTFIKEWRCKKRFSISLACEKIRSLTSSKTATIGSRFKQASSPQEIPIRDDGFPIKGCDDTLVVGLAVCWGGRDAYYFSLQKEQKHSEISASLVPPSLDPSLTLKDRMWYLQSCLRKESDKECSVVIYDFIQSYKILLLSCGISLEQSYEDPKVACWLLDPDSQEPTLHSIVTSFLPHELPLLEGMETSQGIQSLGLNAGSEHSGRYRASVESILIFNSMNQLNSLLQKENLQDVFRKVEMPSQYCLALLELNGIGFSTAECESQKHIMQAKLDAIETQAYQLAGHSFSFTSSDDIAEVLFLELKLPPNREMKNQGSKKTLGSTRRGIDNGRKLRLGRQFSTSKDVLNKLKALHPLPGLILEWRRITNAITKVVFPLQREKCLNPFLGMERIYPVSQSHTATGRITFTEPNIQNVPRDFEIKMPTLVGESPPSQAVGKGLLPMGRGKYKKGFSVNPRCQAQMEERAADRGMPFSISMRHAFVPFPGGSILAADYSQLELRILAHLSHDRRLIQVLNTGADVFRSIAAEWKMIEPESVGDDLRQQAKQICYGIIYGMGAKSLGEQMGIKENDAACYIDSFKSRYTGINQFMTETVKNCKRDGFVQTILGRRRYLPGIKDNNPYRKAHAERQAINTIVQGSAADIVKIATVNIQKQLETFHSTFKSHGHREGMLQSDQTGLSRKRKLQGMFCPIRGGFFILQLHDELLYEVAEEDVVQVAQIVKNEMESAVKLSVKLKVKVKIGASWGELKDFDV

DLD1 BRCA2 -/- cells = assay: Western blot γ-H2AX phosphorylation and PARP cleavage; format: cell-based; conditions: versus parental
Protocol: Cells were harvested using—cell scraper and washed in phosphate-buffered saline (PBS), then lysed in 1 x RIPA Lysis and Extraction Buffer (Thermo Scientific #89901) containing Halt™ Protease and Phosphatase Inhibitor Cocktail (Thermo Scientific #1861281). Protein concentration was measured using Pierce™ BCA Protein Assay Kit (Thermo Scientific #23225). The proteins were separated by electrophoresis using 4–20% Mini-PROTEAN® TGX™ Precast Protein Gels (Bio-Rad #4561096) and transferred to Immuno Blot PVDF Membrane (Bio-Rad #1620177). Membranes were blocked using 5%-milk-TBST (or 5%-BSA-TBST for phospho-proteins) for 1 h at room temperature and washed with TBST prior to antibody incubation. Primary antibodies were incubated overnight at 4 °C in 1%-milk-TBST (or 2%-BSA-TBST for phospho-proteins). γ-H2AX (p Ser139) was detected using antibody (NOVUS #NB100-384) diluted 1:2000. Cleaved PARP was detected using antibody (Cell Signaling #9546) diluted 1:2000. Gapdh was detected using Gapdh (14C10) rabbit monoclonal antibody (Cell Signaling Technology #2118) diluted 1:4000. Membranes were washed with TBST prior to secondary antibody incubation for 1 h at room temperature using respective Goat anti-Rabbit IgG (H + L) HRP (Invitrogen #31466) or Goat anti-Mouse IgG (H + L) HRP (Invitrogen #31430)–tagged Secondary Antibody diluted 1:5000 in 2%-milk-TBST. […]

Fl-Polθ:DNA/DNA complex = biological target: T2, Fl-Polθ:DNA/DNA complex (Homo sapiens, UniProt O75417); assay: EcoRI endonuclease protection assay; format: biochemical;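 on i+1 (%) (15 nt), replicates #1-#3: i+1 is one-nucleotide extended DNA within post-catalytic complexes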
T2 construct: recombinant human full-length Polθ (Fl-Polθ); made in house
Protocol: (§1) EcoRI and KpnI endonucleases assay: 25 nM 5’-^32P radiolabeled primer-template DNA Sc15-EcoRI (5’-^32P LM3-EcoRI/LM4-EcoRI) or Sc19-KpnI (5’-^32P LM11-Kpn/LM12-Kpn) in reaction buffer (25 mM Tris-HCl pH 7.5, 10 mM MgCl2, 10% glycerol, 0.1 mg/mL BSA, 0,01% igepal, 1 mM DTT) were incubated in the presence or in the absence of 50 nM Polθ-pol, 100 μM ddCTP, and 10 μM inhibitors, as indicated, for 5 min at room temperature. Next, 0.08 U/μL EcoRI or KpnI together with 500 nM “trapping” DNA Sc14 (RP559/RP702) were added and incubated for further 0–40 min at 30 °C as indicated. 10 nM PolθΔcen and FL-Polθ and 25 nM Sc15-EcoRI and Sc19-Kpn were probed with 0.04 U/μL EcoRI or KpnI (both from New England Biolabs) using the same conditions. Reactions were stopped by addition of formamide loading buffer with 50 mM EDTA, resolved in denaturing 20% urea PAAG and analyzed using Typhoon PhosphorImager (GE Amersham). Quantification was done in ImageQuant TL software. All quantified experiments were performed in triplicates and plotted as mean with ± s.d using GraphPad Prism 9 software.

PolθΔcen:DNA/DNA complex = assay: EcoRI endonuclease protection assay; format: biochemical; conditions: for i (%), normalized to 100%, ave(%) / i (%), replicates: 14 nt i; for i+1 (%) normalized to 100%, ave(%) / i+1 (%), replicates: 15 nt i+1;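 on i (%), replicates: i is primer-template DNA within pre-catalytic complexes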;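 on i+1 (%), replicates: i+1 is one-nucleotide extended DNA within post-catalytic complexes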
Protocol: as §1

[1] = biological target: T3, recombinant human full-length Polθ (Fl-Polθ) (Homo sapiens, UniProt O75417); assay: Fl-Polθ DNA/DNA primer extension; format: biochemical; conditions: 0.15-12 µM, gel
T3 construct: recombinant human full-length Polθ (Fl-Polθ); made in house

[2] = Eco+PolqDcen+ddC+RTx152, 2.5min

T2 sequence (O75417 whole entry, one chain of several): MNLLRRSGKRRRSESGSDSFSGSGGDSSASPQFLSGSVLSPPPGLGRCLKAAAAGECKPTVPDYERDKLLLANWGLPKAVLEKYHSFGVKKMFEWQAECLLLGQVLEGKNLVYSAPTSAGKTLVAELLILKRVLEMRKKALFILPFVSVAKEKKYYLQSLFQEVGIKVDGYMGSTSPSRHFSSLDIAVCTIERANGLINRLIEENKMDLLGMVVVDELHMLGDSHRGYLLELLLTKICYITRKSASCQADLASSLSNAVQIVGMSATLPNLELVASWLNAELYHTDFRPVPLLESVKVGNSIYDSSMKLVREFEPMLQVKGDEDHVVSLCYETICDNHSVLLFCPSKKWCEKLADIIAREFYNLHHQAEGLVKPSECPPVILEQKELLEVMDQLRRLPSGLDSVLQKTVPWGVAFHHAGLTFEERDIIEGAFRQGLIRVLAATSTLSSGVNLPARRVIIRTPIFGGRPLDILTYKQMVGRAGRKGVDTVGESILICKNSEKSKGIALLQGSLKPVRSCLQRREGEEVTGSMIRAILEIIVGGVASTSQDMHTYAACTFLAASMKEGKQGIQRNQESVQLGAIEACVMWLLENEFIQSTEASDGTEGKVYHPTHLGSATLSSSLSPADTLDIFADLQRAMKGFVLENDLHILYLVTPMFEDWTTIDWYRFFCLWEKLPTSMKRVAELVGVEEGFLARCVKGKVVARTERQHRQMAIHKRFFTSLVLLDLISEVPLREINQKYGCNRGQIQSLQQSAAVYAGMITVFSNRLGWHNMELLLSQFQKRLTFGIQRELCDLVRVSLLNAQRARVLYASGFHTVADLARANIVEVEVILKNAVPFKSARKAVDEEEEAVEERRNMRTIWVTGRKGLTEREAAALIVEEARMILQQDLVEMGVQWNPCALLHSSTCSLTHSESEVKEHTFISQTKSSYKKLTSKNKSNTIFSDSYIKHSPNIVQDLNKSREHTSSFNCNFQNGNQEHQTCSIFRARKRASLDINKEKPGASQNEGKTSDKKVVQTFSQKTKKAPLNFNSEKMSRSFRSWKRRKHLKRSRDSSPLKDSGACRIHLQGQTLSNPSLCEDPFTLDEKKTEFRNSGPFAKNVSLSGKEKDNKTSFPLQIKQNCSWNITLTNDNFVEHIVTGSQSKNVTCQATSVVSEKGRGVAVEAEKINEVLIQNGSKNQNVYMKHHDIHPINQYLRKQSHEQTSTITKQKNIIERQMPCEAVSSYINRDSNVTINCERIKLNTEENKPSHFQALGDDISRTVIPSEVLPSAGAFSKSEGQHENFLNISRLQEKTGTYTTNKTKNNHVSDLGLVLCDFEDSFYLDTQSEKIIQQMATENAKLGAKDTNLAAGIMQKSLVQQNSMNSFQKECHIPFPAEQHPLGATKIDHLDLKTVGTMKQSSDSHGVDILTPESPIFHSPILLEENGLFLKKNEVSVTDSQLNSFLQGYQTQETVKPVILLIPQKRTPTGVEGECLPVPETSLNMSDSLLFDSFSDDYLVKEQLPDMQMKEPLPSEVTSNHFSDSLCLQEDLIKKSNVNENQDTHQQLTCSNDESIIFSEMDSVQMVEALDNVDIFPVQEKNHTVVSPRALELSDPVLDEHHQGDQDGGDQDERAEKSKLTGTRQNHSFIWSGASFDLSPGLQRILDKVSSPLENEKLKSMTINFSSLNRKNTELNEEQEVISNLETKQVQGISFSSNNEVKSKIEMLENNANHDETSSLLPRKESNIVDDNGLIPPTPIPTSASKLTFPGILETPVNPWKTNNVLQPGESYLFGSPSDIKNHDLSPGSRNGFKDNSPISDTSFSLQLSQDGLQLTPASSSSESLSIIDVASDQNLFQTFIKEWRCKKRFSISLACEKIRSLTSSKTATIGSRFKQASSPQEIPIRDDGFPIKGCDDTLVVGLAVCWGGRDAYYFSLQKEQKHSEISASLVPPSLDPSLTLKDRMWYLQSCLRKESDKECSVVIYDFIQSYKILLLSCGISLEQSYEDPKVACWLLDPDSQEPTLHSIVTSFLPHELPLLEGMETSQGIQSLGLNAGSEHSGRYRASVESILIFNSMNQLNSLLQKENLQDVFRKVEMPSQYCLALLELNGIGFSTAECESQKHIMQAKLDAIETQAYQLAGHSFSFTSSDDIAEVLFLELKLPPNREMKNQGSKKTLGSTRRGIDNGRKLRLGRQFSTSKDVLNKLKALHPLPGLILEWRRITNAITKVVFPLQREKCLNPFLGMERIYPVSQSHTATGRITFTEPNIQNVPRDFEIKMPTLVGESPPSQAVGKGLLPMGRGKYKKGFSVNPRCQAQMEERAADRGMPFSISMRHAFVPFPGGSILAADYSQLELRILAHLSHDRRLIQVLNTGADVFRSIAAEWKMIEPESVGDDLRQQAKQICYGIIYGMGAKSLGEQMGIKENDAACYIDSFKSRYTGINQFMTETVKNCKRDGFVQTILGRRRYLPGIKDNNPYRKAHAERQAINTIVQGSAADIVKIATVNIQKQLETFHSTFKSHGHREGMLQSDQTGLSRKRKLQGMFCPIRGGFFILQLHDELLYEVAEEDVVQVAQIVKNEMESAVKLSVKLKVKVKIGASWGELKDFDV
T3 sequence (O75417 whole entry): as the sequence (O75417 whole entry, one chain of several) above

`CN(C(=O)Oc1c(N2CCN(CCO)C2=O)cc(C(F)(F)F)cc1C(F)(F)F)c1ccc(F)cc1` [RTx-161] was tested, and the “% Full Extension” value (Polθ-pol; Pol Theta) was 14.28%, the “% Inhibition Compared to Control” value (Polθ-pol; Pol Theta) was 85.17% and the “% Relative Maximum Extension” value (Polθ-pol; Pol Theta) was 14.83%. For the same compound, the “inhibition of primer extension” value (Polθ-pol; selectivity panel) was “selective inhibition” and the PARP cleavage (DLD1 BRCA2 -/- cells) was “selectively induced PARP cleavage”.
`CN1CCN(c2cc(C(F)(F)F)cc(C(F)(F)F)c2OC(=O)N(C)c2ccc(F)cc2)C1=O` [RTx-152] was tested, and the “EcoRI cleavage %, ave” value (Fl-Polθ:DNA/DNA complex; Eco+FL+ddC+RTx152, 2.5min) was 15.4%, the “EcoRI cleavage %, replicates #1-#3” value (Fl-Polθ:DNA/DNA complex; Eco+FL+ddC+RTx152, 2.5min) was 16.1% and 15.5% and 14.7% and the “EcoRI cleavage %, ave” value (Fl-Polθ:DNA/DNA complex; Eco+FL+ddC+RTx152, 5min) was 27.7%. The “EcoRI cleavage %, replicates #1-#3” value (Fl-Polθ:DNA/DNA complex; Eco+FL+ddC+RTx152, 5min) was 28.7% and 27.4% and 27.0%, the “EcoRI cleavage %, ave” value (Fl-Polθ:DNA/DNA complex; Eco+FL+ddC+RTx152, 10min) was 38.7% and the “EcoRI cleavage %, replicates #1-#3” value (Fl-Polθ:DNA/DNA complex; Eco+FL+ddC+RTx152, 10min) was 39.6% and 39.0% and 37.5%. The “i (%) (14 nt), replicates #1-#3” value (Fl-Polθ:DNA/DNA complex; FL+ddC+152, 2.5min) was 45.9% and 45.3% and 45.1%, the “i (%), normalized to 100%, ave(%)” value (Fl-Polθ:DNA/DNA complex; FL+ddC+152, 2.5min) was 100.0% and the “i+1 (%) (15 nt), replicates #1-#3” value (Fl-Polθ:DNA/DNA complex; FL+ddC+152, 2.5min) was 24.5% and 25.2% and 24.4%. The “i+1 (%) normalized to 100%, ave(%)” value (Fl-Polθ:DNA/DNA complex; FL+ddC+152, 2.5min) was 100.0%, the “i (%) (14 nt), replicates #1-#3” value (Fl-Polθ:DNA/DNA complex; FL+ddC+152, 5min) was 32.7% and 32.3% and 32.8% and the “i (%), normalized to 100%, ave(%)” value (Fl-Polθ:DNA/DNA complex; FL+ddC+152, 5min) was 71.7%. For the same compound, the “i+1 (%) (15 nt), replicates #1-#3” value (Fl-Polθ:DNA/DNA complex; FL+ddC+152, 5min) was 24.7% and 27.0% and 24.6%, the “i+1 (%) normalized to 100%, ave(%)” value (Fl-Polθ:DNA/DNA complex; FL+ddC+152, 5min) was 103.0% and the “i (%) (14 nt), replicates #1-#3” value (Fl-Polθ:DNA/DNA complex; FL+ddC+152, 10min) was 19.6% and 20.0% and 17.7%. For the same compound, the “i (%), normalized to 100%, ave(%)” value (Fl-Polθ:DNA/DNA complex; FL+ddC+152, 10min) was 42.0%, the “i+1 (%) (15 nt), replicates #1-#3” value (Fl-Polθ:DNA/DNA complex; FL+ddC+152, 10min) was 27.5% and 27.2% and 25.6% and the “i+1 (%) normalized to 100%, ave(%)” value (Fl-Polθ:DNA/DNA complex; FL+ddC+152, 10min) was 108.3%. The “post-catalytic complexes (i + 1), EcoRI cleavage” value (Fl-Polθ:DNA/DNA complex; Fl-Polθ) was “fully resistant to EcoRI cleavage”, the “EcoRI cleavage %, ave” value (PolθΔcen:DNA/DNA complex; [2]) was 9.7% and the “EcoRI cleavage %, replicates” value (PolθΔcen:DNA/DNA complex; [2]) was 11.0% and 8.0% and 10.0%. For the same compound, the “EcoRI cleavage %, ave” value (PolθΔcen:DNA/DNA complex; Eco+PolqDcen+ddC+RTx152, 5min) was 14.0%, the “EcoRI cleavage %, replicates” value (PolθΔcen:DNA/DNA complex; Eco+PolqDcen+ddC+RTx152, 5min) was 17.0% and 12.0% and 13.0% and the “EcoRI cleavage %, ave” value (PolθΔcen:DNA/DNA complex; Eco+PolqDcen+ddC+RTx152, 10min) was 16.7%. The “EcoRI cleavage %, replicates” value (PolθΔcen:DNA/DNA complex; Eco+PolqDcen+ddC+RTx152, 10min) was 21.0% and 14.0% and 15.0%, the “i (%), normalized to 100%, ave(%)” value (PolθΔcen:DNA/DNA complex; PolqDcen+ddC+152, 2.5 min) was 100.0% and the “i (%), replicates” value (PolθΔcen:DNA/DNA complex; PolqDcen+ddC+152, 2.5 min) was 50.3% and 44.4% and 42.8%. The “i+1 (%) normalized to 100%, ave(%)” value (PolθΔcen:DNA/DNA complex; PolqDcen+ddC+152, 2.5 min) was 100.0%, the “i+1 (%), replicates” value (PolθΔcen:DNA/DNA complex; PolqDcen+ddC+152, 2.5 min) was 20.4% and 24.4% and 22.1% and the “i (%), normalized to 100%, ave(%)” value (PolθΔcen:DNA/DNA complex; PolqDcen+ddC+152, 5 min) was 86.1%. For the same compound, the “i (%), replicates” value (PolθΔcen:DNA/DNA complex; PolqDcen+ddC+152, 5 min) was 40.2% and 38.5% and 39.7%, the “i+1 (%) normalized to 100%, ave(%)” value (PolθΔcen:DNA/DNA complex; PolqDcen+ddC+152, 5 min) was 111.1% and the “i+1 (%), replicates” value (PolθΔcen:DNA/DNA complex; PolqDcen+ddC+152, 5 min) was 23.8% (2×) and 26.6%. For the same compound, the “i (%), normalized to 100%, ave(%)” value (PolθΔcen:DNA/DNA complex; PolqDcen+ddC+152, 10 min) was 66.5%, the “i (%), replicates” value (PolθΔcen:DNA/DNA complex; PolqDcen+ddC+152, 10 min) was 33.3% and 25.6% and 32.6% and the “i+1 (%) normalized to 100%, ave(%)” value (PolθΔcen:DNA/DNA complex; PolqDcen+ddC+152, 10 min) was 137.8%. For the same compound, the “i+1 (%), replicates” value (PolθΔcen:DNA/DNA complex; PolqDcen+ddC+152, 10 min) was 25.8% and 38.6% and 27.7%.
`CN(C(=O)Oc1ccc(C(F)(F)F)cc1C(F)(F)F)c1ccc(F)cc1` [MC160385] was tested, and the “inhibition of Fl-Polθ DNA synthesis activity” value [1] was “inhibits; also recorded: inhibition”.
